From US10308620B2, “Muscarinic M1 receptor positive allosteric modulators” (SUVEN LIFE SCIENCES LIMITED, priority 2015, dated 2019)
Where a name gives a salt, the structure may show the parent alone.

These compounds were tested against recombinant human Muscarinic M1 receptor (Homo sapiens (Human), UniProt P11229) (assay: Allosteric potency EC50, CHO cells with pCRE-Luc reporter, in presence of EC20 of acetylcholine). Details: 4 hours.
Format: cell-based
Protocol: Determination of Allosteric Potency EC50 Values for Muscarinic M1 Receptor:
A stable CHO cell line expressing recombinant human Muscarinic M1 receptor and pCRE-Luc reporter system was used for cell-based assay. The assay offers a non-radioactive based approach to determine binding of a compound to GPCRs. In this specific assay, the level of intracellular cyclic AMP which is modulated by activation or inhibition of the receptor is measured. The recombinant cells harbor luciferase reporter gene under the control of cAMP response element.
The above cells were grown in 96 well clear bottom white plates in Hams F12 medium containing 10% fetal bovine serum (FBS). Prior to the addition of compounds or standard agonist, cells were serum starved overnight. Increasing concentrations of test compounds were added along with EC20 of acetylcholine in OptiMEM medium to the cells. The incubation was continued at 37° C. in CO2 incubator for 4 hours. Medium was removed and cells were washed with phosphate buffered saline. The cells were lysed and luciferase activity was measured in a Luminometer. Luminescence units were plotted against the compound concentrations using Graphpad software. EC50 values of the compounds were defined as the concentration required in stimulating the luciferase activity by 50% in presence of EC20 of acetylcholine.

recombinant human Muscarinic M1 receptor, sequence (P11229 whole entry): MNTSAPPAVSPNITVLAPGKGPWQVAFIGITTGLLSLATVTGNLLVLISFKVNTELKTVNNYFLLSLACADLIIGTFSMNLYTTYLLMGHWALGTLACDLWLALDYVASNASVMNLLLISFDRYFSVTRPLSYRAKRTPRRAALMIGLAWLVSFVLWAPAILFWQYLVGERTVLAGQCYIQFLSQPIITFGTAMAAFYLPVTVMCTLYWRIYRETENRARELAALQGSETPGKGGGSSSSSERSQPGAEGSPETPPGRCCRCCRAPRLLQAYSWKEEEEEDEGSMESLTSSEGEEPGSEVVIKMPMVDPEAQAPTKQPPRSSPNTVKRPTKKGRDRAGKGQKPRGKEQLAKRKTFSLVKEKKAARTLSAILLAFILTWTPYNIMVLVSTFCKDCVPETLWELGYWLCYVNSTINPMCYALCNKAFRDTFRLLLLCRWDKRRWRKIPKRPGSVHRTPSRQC

| Structure (SMILES) | EC50 [nM] |
| --- | --- |
| O=C(N[C@@H]1CCC[C@H]1O)C1=CN(Cc2ccccc2F)c2ccccc2O1 [Example 40, N-(trans-1R,2R-2-Hydroxycyclopentyl)-4-(2-fluorobenzyl)-4H-benzo[1,4]oxazine-2-carboxamide] | 1530 |
| O=C(N[C@H]1CCCC[C@@H]1O)C1=CN(Cc2ccc(Cl)c(Cl)c2)c2ccccc2O1 [Example 26, N-(cis-1S, 2S-2-Hydroxycyclohexyl)-4-(3,4-dichlorobenzyl)-4H-benzo[1,4]oxazine-2-carboxamide] | 159 |
| O=C(N[C@H]1CCCC[C@@H]1O)C1=CN(Cc2ccnc(-c3ccccc3)c2)c2ccccc2O1 [Example 52, N-(cis-1S,2S-2-Hydroxycyclohexyl)-4-(2-phenylpyridin-4-ylmethyl)-4H-benzo[1,4]oxazine-2-carboxamide] | 1350 |
| O=C(N[C@H]1CCCC[C@@H]1O)C1=CN(Cc2ccccc2Cl)c2ccccc2O1 [Example 41, N-(cis-1S, 2S-2-Hydroxycyclohexyl)-4-(2-chlorobenzyl)-4H-benzo[1,4]oxazine-2-carboxamide] | 168 |
| O=C(N[C@@H]1CCC[C@H]1O)C1=CN(Cc2cccc(F)c2F)c2ccccc2O1 [Example 39, N-(trans-1R,2R-2-Hydroxycyclopentyl)-4-(2,3-difluorobenzyl)-4H-benzo[1,4]oxazine-2-carboxamide] | 1550 |
| O=C(N[C@H]1CCCC[C@@H]1O)C1=CN(Cc2ccncc2)c2cccc(F)c2O1 [Example 57, N-(cis-1S,2S-2-Hydroxycyclohexyl)-4-(pyridin-4-ylmethyl)-8-fluoro-4H-benzo[1,4]oxazine-2-carboxamide] | 179 |
| O=C(N[C@H]1CCCC[C@@H]1O)C1=CN(Cc2ccccc2F)c2ncccc2O1 [Example 3, N-(cis-1S,2S-2-Hydroxycyclohexyl)-4-{2-fluorobenzyl}-4H-pyrido[3,2-b][1,4]oxazine-2-carboxamide] | 1150 |
| COc1ccc(CN2C=C(C(=O)NCC(C)(C)O)Oc3ccccc32)cc1 [Example 6, N-(2-Hydroxy-2-methylpropyl)-4-(4-methoxybenzyl)-4H-benzo[1,4]oxazine-2-carboxamide] | 1510 |
| Cc1ncccc1CN1C=C(C(=O)N[C@H]2CCCC[C@@H]2O)Oc2ccccc21 [Example 27, N-(cis-1S,2S-2-Hydroxycyclohexyl)-4-(2-methylpyridin-3-ylmethyl)-4H-benzo[1,4]oxazine-2-carboxamide] | 1370 |
| O=C(N[C@H]1CCCC[C@@H]1O)C1=CN(Cc2ccccn2)c2ccccc2[S+]1[O-] (stereo partly drawn) [Example 96, N-(cis-1 S, 2S-2-Hydroxycyclohexyl)-4-{pyridin-2-ylmethyl}-1-oxo-4H-benzo[1,4]thiazine-2-carboxamide] | 2160 |
| O=C(NC1CCNCC1F)C1=CN(Cc2ccccc2F)c2cccc(F)c2O1 (centres unmarked) [Example 73, N-(3-Fluoropiperidin-4-yl)-4-(2-fluorobenzyl)-8-fluoro-4H-benzo[1,4]oxazine-2-carboxamide hydrochloride] | 2370 |
| CC(C)C(CO)NC(=O)C1=CN(Cc2ccccc2F)c2cccc(F)c2O1 (centres unmarked) [Example 47, N-(1-Hydroxymethyl-2-methylpropyl)-4-(2-fluorobenzyl)-8-fluoro-4H-benzo[1,4]oxazine-2-carboxamide] | 1320 |
| O=C(N[C@H]1CCCC[C@@H]1O)C1=CN(Cc2ccc(Cl)cc2Cl)c2ccccc2O1 [Example 28, N-(cis-1S, 2S-2-Hydroxycyclohexyl)-4-(2,4-dichlorobenzyl)-4H-benzo[1,4]oxazine-2-carboxamide] | 250 |
| O=C(N[C@H]1CCCC[C@@H]1O)C1=CN(Cc2ccncc2)c2ccccc2S1 [Example 90, N-(cis-1S,2S-2-Hydroxycyclohexyl)-4-{pyridin-4-ylmethyl}-4H-benzo[1,4]thiazine-2-carboxamide] | 599 |
| O=C(NC1CCNCC1O)C1=CN(Cc2ccccc2F)c2ccccc2O1 (centres unmarked) [Example 76, N-(3-Hydroxypiperidin-4-yl)-4-(2-fluorobenzyl)-4H-benzo[1,4]oxazine-2-carboxamide trifluoroacetate] | 412 |
| O=C(N[C@H]1CCCC[C@@H]1O)C1=CN(Cc2ccccc2)c2ncccc2O1 [Example 30, N-(cis-1S, 2S-2-Hydroxycyclohexyl)-4-benzyl-4H-pyrido[3,2-b][1,4]oxazine-2-carboxamide] | 955 |
| O=C(N[C@H]1CCCC[C@@H]1O)C1=CN(Cc2cccnc2)c2ccccc2O1 [Example 22, N-(cis-1S,2S-2-Hydroxycyclohexyl)-4-(pyridin-3-ylmethyl)-4H-benzo[1,4]oxazine-2-carboxamide] | 353 |
| Cn1ccc(-c2cc(CN3C=C(C(=O)N[C@H]4CCCC[C@@H]4O)Oc4ccccc43)ccn2)n1 [Example 59, N-(cis-1S,2S-2-Hydroxycyclohexyl)-4-[12-(1-methyl-1H-pyrazol-3-yl)-pyridin-4-ylmethyl]-4H-benzo[1,4]oxazine-2-carboxamide] | 1010 |
| O=C(N[C@H]1CCCC[C@@H]1O)C1=CN(Cc2ccnc(Cl)c2)c2cccc(F)c2O1 [Example 54, N-(cis-1S,2S-2-Hydroxycyclohexyl)-4-(2-chloropyridin-4-ylmethyl)-8-fluoro-4H-benzo[1,4]oxazine-2-carboxamide] | 88 |
| COc1ccc(CN2C=C(C(=O)N[C@H]3CCCC[C@@H]3O)Sc3ccccc32)cc1 [Example 88, N-(cis-1S,2S-2-Hydroxycyclohexyl)-4-{4-methoxybenzyl}-4H-benzo[1,4]thiazine-2-carboxamide] | 145 |
| O=C(N[C@H]1CCCC[C@@H]1O)C1=CN(Cc2cccc(F)c2F)c2ccccc2S1 [Example 85, N-(cis-1S,2S-2-Hydroxycyclohexyl)-4-(2,3-difluorobenzyl)-4H-benzo[1,4]thiazine-2-carboxamide] | 117 |
| COc1cccc(CN2C=C(C(=O)NCC(C)(C)O)Oc3ccccc32)c1 [Example 10, N-(2-Hydroxy-2-methylpropyl)-4-(3-methoxybenzyl)-4H-benzo[1,4]oxazine-2-carboxamide] | 1550 |
| O=C(N[C@H]1CCCC[C@@H]1O)C1=CN(Cc2ccc(F)cc2)c2ccccc2S1 [Example 89, N-(cis-1S,2S-2-Hydroxycyclohexyl)-4-{4-fluorobenzyl}-4H-benzo[1,4]thiazine-2-carboxamide] | 460 |
